Reference: patent publication US20110009265A1, “Herbicidal Compositions Comprising Pyroxasulfone” (BASF SE, priority 2008, published 2011)
Like-named read-outs stand apart in the source and are kept apart here.

What was measured:
Avena fatua (AVEFA) = test: greenhouse pre-emergence herbicidal activity; assay type: in vivo; details: read-out: observed % activity; for inhibition at 50 g/ha: 50 g ai/ha; for inhibition at 125 g/ha: 125 g ai/ha
Text: (§1) For the pre-emergence treatment, directly after sowing the active compounds, which had been suspended or emulsified in water, were applied by means of finely distributed nozzles. The containers were irrigated gently to promote germination and growth and subsequently covered with transparent plastic hoods until plant had rooted. This cover caused uniform germination of the tests plants, unless this was adversely affected by active compounds.
(§2) The respective herbicides A and/or safener were formulated as 10% by weight strength suspension concentrate and introduced to the spray liquor with the amount of solvent system used for applying the active compound. Herbicide B and/or safener were used as commercially available formulations and introduced to the spray liquor with the amount of solvent system used for applying the active compound. In the examples, the solvent used was water.
(§3) Pendimethalin was used as a commercial aqueous suspension concentrate having an active ingredient concentration of 400 g/l.
(§4) The test period extended over 21 days. During this time, the plants were tended, and their response to the treatments with active compound was evaluated.
(§5) The evaluation for the damage caused by the chemical compositions was carried out using a scale from 0 to 100%, compared to the untreated control plants. Here, 0 means no damage and 100 means complete destruction of the plants.
(§6) The value E, which is to be expected if the activity of the individual compounds is just additive, was calculated using the method of S. R. Colby (1967) “Calculating synergistic and antagonistic responses of herbicide combinations”, Weeds 15, p. 22 ff.
(§7) where • X=effect in percent using herbicide A at an application rate a; • Y=effect in percent using herbicide B at an application rate b; • E=expected effect (in %) of A+B at application rates a+b.
(§8) If the value observed in this manner is higher than the value E calculated according to Colby, a synergistic effect is present.

Bromus inermis (BROIN) = test: greenhouse pre-emergence herbicidal activity; assay type: in vivo; details: read-out: observed % activity; for inhibition at 6.25 g/ha: 6.25 g ai/ha; for inhibition at 12.5 g/ha: 12.5 g ai/ha; for inhibition at 25 g/ha: 25 g ai/ha; for inhibition at 50 g/ha: 50 g ai/ha; for inhibition at 125 g/ha: 125 g ai/ha; for inhibition at 250 g/ha: 250 g ai/ha
Text: as §1, §2, §3, §4, §5, §6, §7, §8

[1] = tested on: Capsella bursa-pastoris (CAPBP); test: greenhouse pre-emergence herbicidal activity; assay type: in vivo; details: read-out: observed % activity; for inhibition at 25 g/ha: 25 g ai/ha; for inhibition at 50 g/ha: 50 g ai/ha; for inhibition at 500 g/ha: 500 g ai/ha
Text: as §1, §2, §3, §4, §5, §6, §7, §8

Galium aparine (GALAP) = test: greenhouse pre-emergence herbicidal activity; assay type: in vivo; details: read-out: observed % activity; for inhibition at 6.25 g/ha: 6.25 g ai/ha; for inhibition at 25 g/ha: 25 g ai/ha; for inhibition at 50 g/ha: 50 g ai/ha; for inhibition at 125 g/ha: 125 g ai/ha; for inhibition at 250 g/ha: 250 g ai/ha
Text: as §1, §2, §3, §4, §5, §6, §7, §8

[2] = tested on: Phalaris canariensis (PHACA); test: greenhouse pre-emergence herbicidal activity; assay type: in vivo; details: read-out: observed % activity; for inhibition at 6.25 g/ha: 6.25 g ai/ha; for inhibition at 125 g/ha: 125 g ai/ha; for inhibition at 250 g/ha: 250 g ai/ha
Text: as §1, §2, §3, §4, §5, §6, §7, §8

Thlaspi arvense (THLAR) [3] = test: greenhouse pre-emergence herbicidal activity; assay type: in vivo; details: read-out: observed % activity; for inhibition at 12.5 g/ha: 12.5 g ai/ha; for inhibition at 50 g/ha: 50 g ai/ha; for inhibition at 125 g/ha: 125 g ai/ha
Text: as §1, §2, §3, §4, §5, §6, §7, §8

Veronica persica (VERPE) = test: greenhouse pre-emergence herbicidal activity; assay type: in vivo; details: read-out: observed % activity; for inhibition at 6.25 g/ha: 6.25 g ai/ha; for inhibition at 12.5 g/ha: 12.5 g ai/ha; for inhibition at 25 g/ha: 25 g ai/ha; for inhibition at 50 g/ha: 50 g ai/ha; for inhibition at 250 g/ha: 250 g ai/ha; for inhibition at 500 g/ha: 500 g ai/ha; for inhibition at 1000 g/ha: 1000 g ai/ha
Text: as §1, §2, §3, §4, §5, §6, §7, §8

[4] = tested on: Alopecurus myosuroides (ALOMY); test: greenhouse post-emergence herbicidal activity; assay type: in vivo; details: for inhibition at 25 g/ha / inhibition at 250 g/ha: Alopecurus myosuroides, read-out: observed % activity
Text: (§9) For the post-emergence treatment, the test plants were first grown to a height of 3 to 20 cm, depending on the plant habit, and only then treated. Here, the herbicidal compositions were suspended or emulsified in water as distribution medium and sprayed using finely distributing nozzles.
as §2, §3, §4, §5, §6, §7, §8

[5] = tested on: Amaranthus retroflexus (AMARE); test: greenhouse post-emergence herbicidal activity; assay type: in vivo; details: 20 DAT
Text: as §9, §2, §3, §4, §5, §6, §7, §8

[6] = tested on: Apera spica-venti (APESV); test: greenhouse post-emergence herbicidal activity; assay type: in vivo; details: 20 DAT
Text: as §9, §2, §3, §4, §5, §6, §7, §8

[7] = tested on: Capsella bursa-pastoris (CAPBP); test: greenhouse post-emergence herbicidal activity; assay type: in vivo; details: 20 DAT
Text: as §9, §2, §3, §4, §5, §6, §7, §8

Lamium purpureum (LAMPU) = test: greenhouse post-emergence herbicidal activity; assay type: in vivo; details: 20 DAT
Text: as §9, §2, §3, §4, §5, §6, §7, §8

[8] = tested on: Matricaria inermis (MATIN); test: greenhouse post-emergence herbicidal activity; assay type: in vivo; details: read-out: observed % activity; for inhibition at 50 g/ha: 50 g ai/ha; for inhibition at 250 g/ha: 250 g ai/ha
Text: as §9, §2, §3, §4, §5, §6, §7, §8

Stellaria media (STEME) = test: greenhouse post-emergence herbicidal activity; assay type: in vivo; details: 20 DAT
Text: as §9, §2, §3, §4, §5, §6, §7, §8

Thlaspi arvense (THLAR) [9] = test: greenhouse post-emergence herbicidal activity; assay type: in vivo; details: for inhibition at 100 g/ha / inhibition at 250 g/ha: Thlaspi arvense, read-out: observed % activity
Text: as §9, §2, §3, §4, §5, §6, §7, §8

Viola arvensis (VIOAR) = test: greenhouse post-emergence herbicidal activity; assay type: in vivo; details: 20 DAT
Text: as §9, §2, §3, §4, §5, §6, §7, §8

harmful plants = details: known from Y. Yamaji et al., 2006; cited from earlier work

## Cn1nc(C(F)(F)F)c(CS(=O)(=O)C2=NOC(C)(C)C2)c1OC(F)F [pyroxasulfone, 3-[5-(difluoromethoxy)-1-methyl-3-(trifluoromethyl)pyrazol-4-ylmethylsulfonyl]-4,5-dihydro-5,5-dimethyl-1,2-oxazole]
Avena fatua (AVEFA); 192 h, 8 DAT
  inhibition at 50 g/ha: 70%
Avena fatua (AVEFA); 480 h, 20 DAT
  inhibition at 50 g/ha: 85%
Bromus inermis (BROIN); 192 h, 8 DAT
  inhibition at 6.25 g/ha: 40%
  inhibition at 12.5 g/ha: 50%
  inhibition at 25 g/ha: 50%
  inhibition at 50 g/ha: 60%
Bromus inermis (BROIN); 480 h, 20 DAT
  inhibition at 6.25 g/ha: 35%
  inhibition at 12.5 g/ha: 60%
  inhibition at 25 g/ha: 60%
  inhibition at 50 g/ha: 75%
[1]; 192 h, 8 DAT
  inhibition at 25 g/ha: 60%
  inhibition at 50 g/ha: 60%
[1]; 480 h, 20 DAT
  inhibition at 25 g/ha: 95%
  inhibition at 50 g/ha: 95%
Galium aparine (GALAP); 192 h, 8 DAT
  inhibition at 6.25 g/ha: 30%
  inhibition at 25 g/ha: 60%
  inhibition at 50 g/ha: 60%
Galium aparine (GALAP); 480 h, 20 DAT
  inhibition at 6.25 g/ha: 20%
  inhibition at 25 g/ha: 75%
  inhibition at 50 g/ha: 80%
[2]; 192 h, 8 DAT
  inhibition at 6.25 g/ha: 40%
[2]; 480 h, 20 DAT
  inhibition at 6.25 g/ha: 40%
Thlaspi arvense (THLAR) [3]; 192 h, 8 DAT
  inhibition at 12.5 g/ha: 40%
  inhibition at 50 g/ha: 60%
Thlaspi arvense (THLAR) [3]; 480 h, 20 DAT
  inhibition at 12.5 g/ha: 30%
  inhibition at 50 g/ha: 80%
Veronica persica (VERPE); 192 h, 8 DAT
  inhibition at 6.25 g/ha: 45%
  inhibition at 12.5 g/ha: 60%
  inhibition at 25 g/ha: 60%
  inhibition at 50 g/ha: 60%
Veronica persica (VERPE); 480 h, 20 DAT
  inhibition at 6.25 g/ha: 70%
  inhibition at 12.5 g/ha: 90%
  inhibition at 25 g/ha: 85%
  inhibition at 50 g/ha: 90%
[4]; 25 g ai/ha, 20 DAT
  observed activity in % destruction 20 days after treatment: 65%
[4]; 168 h, 25 g ai/ha, 7 DAT
  inhibition at 25 g/ha: 25%
[4]; 480 h, 25 g ai/ha, 20 DAT
  inhibition at 25 g/ha: 65%
[5]; 13 g ai/ha
  observed activity in % destruction 20 days after treatment: 45%
[6]; 50 g ai/ha
  observed activity in % destruction 20 days after treatment: 85%
[7]; 25 g ai/ha
  observed activity in % destruction 20 days after treatment: 35%
Lamium purpureum (LAMPU); 50 g ai/ha
  observed activity in % destruction 20 days after treatment: 70%
[8]; 168 h, 7 DAT
  inhibition at 50 g/ha: 40%
[8]; 480 h, 20 DAT
  inhibition at 50 g/ha: 0%
Stellaria media (STEME); 50 g ai/ha
  observed activity in % destruction 20 days after treatment: 85%
Stellaria media (STEME); 100 g ai/ha
  observed activity in % destruction 20 days after treatment: 95%
Thlaspi arvense (THLAR) [9]; 25 g ai/ha, 20 DAT
  observed activity in % destruction 20 days after treatment: 50%
Thlaspi arvense (THLAR) [9]; 100 g ai/ha, 20 DAT
  observed activity in % destruction 20 days after treatment: 80%
Thlaspi arvense (THLAR) [9]; 168 h, 100 g ai/ha, 7 DAT
  inhibition at 100 g/ha: 70%
Thlaspi arvense (THLAR) [9]; 480 h, 100 g ai/ha, 20 DAT
  inhibition at 100 g/ha: 80%
Viola arvensis (VIOAR); 25 g ai/ha
  observed activity in % destruction 20 days after treatment: 0%
Harmful plants
  post-emergence activity: only poor post-emergence activity

## CCC(CC)Nc1c([N+](=O)[O-])cc(C)c(C)c1[N+](=O)[O-] [pendimethalin]
Avena fatua (AVEFA); 192 h, 8 DAT
  inhibition at 125 g/ha: 0%
Avena fatua (AVEFA); 480 h, 20 DAT
  inhibition at 125 g/ha: 0%
Bromus inermis (BROIN); 192 h, 8 DAT
  inhibition at 125 g/ha: 20%
  inhibition at 250 g/ha: 20%
Bromus inermis (BROIN); 480 h, 20 DAT
  inhibition at 125 g/ha: 0%
  inhibition at 250 g/ha: 0%
[1]; 192 h, 8 DAT
  inhibition at 500 g/ha: 50%
[1]; 480 h, 20 DAT
  inhibition at 500 g/ha: 85%
Galium aparine (GALAP); 192 h, 8 DAT
  inhibition at 125 g/ha: 0%
  inhibition at 250 g/ha: 0%
Galium aparine (GALAP); 480 h, 20 DAT
  inhibition at 125 g/ha: 0%
  inhibition at 250 g/ha: 0%
[2]; 192 h, 8 DAT
  inhibition at 125 g/ha: 0%
  inhibition at 250 g/ha: 30%
[2]; 480 h, 20 DAT
  inhibition at 125 g/ha: 0%
  inhibition at 250 g/ha: 0%
Thlaspi arvense (THLAR) [3]; 192 h, 8 DAT
  inhibition at 125 g/ha: 0%
Thlaspi arvense (THLAR) [3]; 480 h, 20 DAT
  inhibition at 125 g/ha: 20%
Veronica persica (VERPE); 192 h, 8 DAT
  inhibition at 250 g/ha: 65%
  inhibition at 500 g/ha: 65%
  inhibition at 1000 g/ha: 70%
Veronica persica (VERPE); 480 h, 20 DAT
  inhibition at 250 g/ha: 85%
  inhibition at 500 g/ha: 85%
  inhibition at 1000 g/ha: 90%
[4]; 250 g ai/ha, 20 DAT
  observed activity in % destruction 20 days after treatment: 45%
[4]; 168 h, 250 g ai/ha, 7 DAT
  inhibition at 250 g/ha: 35%
[4]; 480 h, 250 g ai/ha, 20 DAT
  inhibition at 250 g/ha: 45%
[5]; 500 g ai/ha
  observed activity in % destruction 20 days after treatment: 80%
[6]; 500 g ai/ha
  observed activity in % destruction 20 days after treatment: 10%
[7]; 1000 g ai/ha
  observed activity in % destruction 20 days after treatment: 95%
Lamium purpureum (LAMPU); 500 g ai/ha
  observed activity in % destruction 20 days after treatment: 90%
[8]; 168 h, 7 DAT
  inhibition at 250 g/ha: 0%
[8]; 480 h, 20 DAT
  inhibition at 250 g/ha: 0%
Stellaria media (STEME); 250 g ai/ha
  observed activity in % destruction 20 days after treatment: 85%
Stellaria media (STEME); 1000 g ai/ha
  observed activity in % destruction 20 days after treatment: 90%
Thlaspi arvense (THLAR) [9]; 250 g ai/ha, 20 DAT
  observed activity in % destruction 20 days after treatment: 80%
Thlaspi arvense (THLAR) [9]; 1000 g ai/ha, 20 DAT
  observed activity in % destruction 20 days after treatment: 90%
Thlaspi arvense (THLAR) [9]; 168 h, 250 g ai/ha, 7 DAT
  inhibition at 250 g/ha: 55%
Thlaspi arvense (THLAR) [9]; 480 h, 250 g ai/ha, 20 DAT
  inhibition at 250 g/ha: 80%
Viola arvensis (VIOAR); 500 g ai/ha
  observed activity in % destruction 20 days after treatment: 85%
